Measured values published in US20260042731A1, “(2,4-DICHLOROPHENOXY)ACETIC ACID ANALOGS” (CORTEVA AGRISCIENCE LLC, priority 2022, published 2026).
Values joined by “and” are separate entries in the source; they are usually repeats but may differ in a detail not shown here. Identical values can stand only once. Like-named read-outs stand apart in the source and are kept apart here.

What was measured:
Corn (ZEAMX) = assay: Greenhouse post-emergence mixture trials, percent visual control; type: in vivo; conditions: Trial Bridge 2, ZEAMX, 21 DAA
[1] = system: Common Lambsquarters (CHEAL); assay: as above; type: in vivo; conditions: CHEAL, 21 DAA
Velvetleaf (ABUTH) = assay: as above; type: in vivo; conditions: Trial Bridge 2, ABUTH, 21 DAA, compound 0 g ae/ha
Tall Waterhemp (AMATA) = assay: as above; type: in vivo; conditions: Trial Bridge 2, 21 DAA
Horseweed (ERICA) = assay: as above; type: in vivo; conditions: 21 DAA
[2] = system: Amaranthus rudis (AMATA), tall water hemp; assay: Postemergence herbicide evaluation, growth of Amaranthus rudis (AMATA); type: in vivo; conditions: for Ave. AMATA, percent reduction in plant size relative to the untreated control: 21 DAA; for pest or weed control at 280 g/ha / pest or weed control at 560 g/ha: Amaranthus tuberculatus, post-emergence, percent reduction in plant size relative to untreated control, read-out: Ave. AMATA
[3] = system: Ambrosia artemisiifolia (AMBEL), common ragweed; assay: Postemergence herbicide evaluation, growth of Ambrosia artemisiifolia (AMBEL); type: in vivo; conditions: for AVE. AMBEL, percent reduction in plant size relative to the untreated control: 21 DAA; for pest or weed control at 280 g/ha / pest or weed control at 560 g/ha: Ambrosia artemisiifolia, post-emergence, percent reduction in plant size relative to untreated control, read-out: AVE. AMBEL
[4] = system: Abutilon theophrasti (ABUTH), velvetleaf; assay: Postemergence herbicide evaluation, growth of Abutilon theophrasti (ABUTH); type: in vivo; conditions: for AVE. ABUTH, percent reduction in plant size relative to the untreated control: 21 DAA; for pest or weed control at 280 g/ha / pest or weed control at 560 g/ha: Abutilon theophrasti, post-emergence, percent reduction in plant size relative to untreated control, read-out: AVE. ABUTH
[5] = system: Chenopodium album (CHEAL), common lambsquarters; assay: Postemergence herbicide evaluation, growth of Chenopodium album (CHEAL); type: in vivo; conditions: for Ave. CHEAL, percent reduction in plant size relative to the untreated control: 21 DAA; for pest or weed control at 280 g/ha / pest or weed control at 560 g/ha: Chenopodium album, post-emergence, percent reduction in plant size relative to untreated control, read-out: Ave. CHEAL
[6] = system: glyphosate resistant Conyza canadensis (L.) (ERICA), horseweed; assay: Postemergence herbicide evaluation, growth of Conyza canadensis (ERICA); type: in vivo; conditions: for Ave. ERICA, percent reduction in plant size relative to the untreated control: 21 DAA; for pest or weed control at 280 g/ha / pest or weed control at 560 g/ha: Erigeron canadensis, post-emergence, percent reduction in plant size relative to untreated control, read-out: Ave. ERICA
[7] = Volatility of compounds measured by thermogravimetric analysis (TGA); type: physicochemical
[8] = system: weeds (ABUTH, AMATA, AMBEL, CHEAL, ERICA); assay: Postemergence herbicide evaluation, overall average % weed control across ABUTH, AMATA, AMBEL, CHEAL, ERICA; type: in vivo; conditions: post-emergence, average over the five weeds, read-out: Overall Ave % Weed Control; for pest or weed control at 280 g/ha: 280 g ae/ha; for pest or weed control at 560 g/ha: 560 g ae/ha
[9] = system: ABUTH, AMATA, AMBEL, CHEAL, ERICA weeds; assay: as above; type: in vivo; conditions: 21 DAA
Text: For example, the pesticidal activity may include herbicidal activity.

[10] = Trifludimoxazin 12.5 g ai or ae/ha alone (B2 rate 0)
[11] = Trifludimoxazin 25 g ai or ae/ha alone (B2 rate 0)
[12] = Trifludimoxazin 50 g ai or ae/ha alone (B2 rate 0)
[13] = Trial Bridge 2, Trifludimoxazin 25 g ai or ae/ha alone (B2 rate 0)
[14] = Trial Bridge 2, Trifludimoxazin 50 g ai or ae/ha alone (B2 rate 0)

C#CCN1C(=O)C(F)(F)Oc2cc(F)c(-n3c(=O)n(C)c(=S)n(C)c3=O)cc21 [Trifludimoxazin, trifludimoxazin]
% Control (Corn (ZEAMX); [10]): 5% and 10% | % Control (Corn (ZEAMX); [11]): 15% and 5% and 10% | % Control (Corn (ZEAMX); [12]): 15% and 20% and 10% | % Control ([1]; Trial Bridge 2, Trifludimoxazin 12.5 g ai or ae/ha alone (B2 rate 0)): 100% | % Control [1, 13]: 100% | % Control [1, 14]: 100% | % Control (Velvetleaf (ABUTH); Trifludimoxazin alone 12.5 g ai or ae/ha): 100% | % Control (Velvetleaf (ABUTH); Trifludimoxazin alone 25 g ai or ae/ha): 100% | % Control (Velvetleaf (ABUTH); Trifludimoxazin alone 50 g ai or ae/ha): 100% | % Control (Tall Waterhemp (AMATA); [10]): 100% | % Control (Tall Waterhemp (AMATA); [11]): 100% | % Control (Tall Waterhemp (AMATA); [12]): 100% | % Control (Horseweed (ERICA); [13]): 25% and 30% | % Control (Horseweed (ERICA); [14]): 30% and 25%

N/C(Cc1ccccc1)=N\OC(=O)COc1ccc(Cl)cc1Cl [Compound A17, N′-(2-(2,4-Dichlorophenoxy)acetoxy)-2-phenylacetimidamide]
Ave. AMATA, percent reduction in plant size relative to the untreated control ([2]; 280 g ae/ha): 83% | Ave. AMATA, percent reduction in plant size relative to the untreated control ([2]; 560 g ae/ha): 89% | pest or weed control at 280 g/ha ([2]; 168 h, 280 g ae/ha, 7 DAA): 73% | pest or weed control at 560 g/ha ([2]; 168 h, 560 g ae/ha, 7 DAA): 70% | pest or weed control at 280 g/ha ([2]; 336 h, 280 g ae/ha, 14 DAA): 78% | pest or weed control at 560 g/ha ([2]; 336 h, 560 g ae/ha, 14 DAA): 80% | AVE. AMBEL, percent reduction in plant size relative to the untreated control ([3]; 280 g ae/ha): 92% | AVE. AMBEL, percent reduction in plant size relative to the untreated control ([3]; 560 g ae/ha): 99% | pest or weed control at 280 g/ha ([3]; 168 h, 280 g ae/ha, 7 DAA): 65% | pest or weed control at 560 g/ha ([3]; 168 h, 560 g ae/ha, 7 DAA): 80% | pest or weed control at 280 g/ha ([3]; 336 h, 280 g ae/ha, 14 DAA): 86% | pest or weed control at 560 g/ha ([3]; 336 h, 560 g ae/ha, 14 DAA): 96% | AVE. ABUTH, percent reduction in plant size relative to the untreated control ([4]; 280 g ae/ha): 65% | AVE. ABUTH, percent reduction in plant size relative to the untreated control ([4]; 560 g ae/ha): 83% | pest or weed control at 280 g/ha ([4]; 168 h, 280 g ae/ha, 7 DAA): 48% | pest or weed control at 560 g/ha ([4]; 168 h, 560 g ae/ha, 7 DAA): 68% | pest or weed control at 280 g/ha ([4]; 336 h, 280 g ae/ha, 14 DAA): 65% | pest or weed control at 560 g/ha ([4]; 336 h, 560 g ae/ha, 14 DAA): 80% | Ave. CHEAL, percent reduction in plant size relative to the untreated control ([5]; 280 g ae/ha): 85% | Ave. CHEAL, percent reduction in plant size relative to the untreated control ([5]; 560 g ae/ha): 90% | pest or weed control at 280 g/ha ([5]; 168 h, 280 g ae/ha, 7 DAA): 70% | pest or weed control at 560 g/ha ([5]; 168 h, 560 g ae/ha, 7 DAA): 68% | pest or weed control at 280 g/ha ([5]; 336 h, 280 g ae/ha, 14 DAA): 78% | pest or weed control at 560 g/ha ([5]; 336 h, 560 g ae/ha, 14 DAA): 85% | Ave. ERICA, percent reduction in plant size relative to the untreated control ([6]; 280 g ae/ha): 97% | Ave. ERICA, percent reduction in plant size relative to the untreated control ([6]; 560 g ae/ha): 94% | pest or weed control at 280 g/ha ([6]; 168 h, 280 g ae/ha, 7 DAA): 65% | pest or weed control at 560 g/ha ([6]; 168 h, 560 g ae/ha, 7 DAA): 65% | pest or weed control at 280 g/ha ([6]; 336 h, 280 g ae/ha, 14 DAA): 85% | pest or weed control at 560 g/ha ([6]; 336 h, 560 g ae/ha, 14 DAA): 83% | TGA Data (rate of weight loss, volatility) [7]: 4.1 µg/min | pest or weed control at 280 g/ha ([8]; 168 h, 7 DAA): 64% | pest or weed control at 560 g/ha ([8]; 168 h, 7 DAA): 70% | pest or weed control at 280 g/ha ([8]; 336 h, 14 DAA): 78% | pest or weed control at 560 g/ha ([8]; 336 h, 14 DAA): 85% | Overall Ave % Weed Control ([9]; 280 g ae/ha): 84% | Overall Ave % Weed Control ([9]; 560 g ae/ha): 91%
